{
  "source": "patent US12427134B2",
  "about": "“Methods of reducing the risk of cardiovascular events in a subject with atrial fibrillation and/or atrial flutter” (priority 2019, dated 2025)",
  "system": "hypertriglyceridemic patients with cardiovascular disease or at high risk for cardiovascular disease",
  "experiment": "REDUCE-IT: clinical laboratory evaluation (hematology, liver function tests, clinical chemistry, drug-induced liver injury)",
  "type": "in vivo, human",
  "method": "Clinical Laboratory Procedures and Evaluations: All clinical laboratory determinations for screening and safety were performed by a certified clinical laboratory under the supervision of the Sponsor or its designee. Whenever possible and appropriate, samples for the clinical laboratory procedures were collected after fasting for at least 10 hours. For the purposes of this study, fasting was defined as nothing by mouth except water (and any essential medications). The investigator reviewed and signed all laboratory test reports. At screening, patients who had laboratory values that are outside the exclusionary limits specified in the exclusion criteria were not enrolled in the study (patients would have been considered for the study if values were classified as not clinically significant by the investigator). After randomization, the investigator was notified if laboratory values were outside of their normal range. In this case, the investigator was required to conduct clinically appropriate follow-up procedures.\nSafety Laboratory Tests: The safety parameters were analyzed by a certified clinical laboratory at screening (Visit 1 or Visit 1.1), Randomization visit (Visit 2; Day 0), Visit 3 (Day 120; −4 Months) and all other follow-up visits including the Last Visit. The safety laboratory tests included: • Hematology with complete blood count (CBC), including RBC, hemoglobin (Hgb), hematocrit (Hct), white cell blood count (WBC), white cell differential, and platelet count; and • Biochemistry panel including total protein, albumin, alkaline phosphatase, alanine am inotransferase (ALT/SGPT), aspartate am inotransferase (AST/SGOT), total bilirubin, glucose, calcium, electrolytes (sodium, potassium, chloride), blood urea nitrogen (BUN), serum creatinine, uric acid, creatine kinase, and HbA1c.\nEach laboratory result was classified as low (L), normal (N), and high (H) at each visit according to the laboratory-supplied normal range. The shift from baseline was presented for each post-baseline visit and overall post-baseline visits. If multiple measurements for a test parameter were available for a post-baseline patient-visit, the most extreme value was included in the shift table. For shift from baseline to overall post-baseline visits, values from all visits (including unscheduled measurements) were included. The chemistry shift table included fasting lipid parameters. The continuous lipid values were presented as part of the efficacy analysis.\nA treatment-emergent PCS high value at any time was defined as a change from a value less than or equal to the upper reference limit at baseline to a PCS high value at any post-baseline measurement. A treatment-emergent PCS low value at any time was defined as a change from a value greater than or equal to the lower reference limit at baseline to a PCS low value at any post-baseline measurement. Number (%) of patients with any post-baseline PCS laboratory values was summarized by treatment group. A listing of patients with PCS laboratory values at any time, i.e., baseline or at any post-baseline visit, were included.\nDILI cases were investigated through the following analyses: • A graph of distribution of peak values of alanine aminotransferase (ALT) versus peak values of total bilirubin (TBL) during the treatment period was prepared, using a logarithmic scale. In the graph, for each patient, the peak TBL times the Upper Limit of Normal (ULN) were plotted against the peak ALT times the ULN, where the peak TBL and peak ALT may or may not have happened on the same day of liver testing. The graph was divided into 4 quadrants with a vertical line corresponding to 3×ULN for ALT and a horizontal line corresponding to 2×ULN for TBL. […]",
  "key": {"[1]": {"conditions": "Baseline (Visit 2), Safety population"}, "[2]": {"conditions": "Visit 9 (n = 8), Safety population"}, "[3]": {"conditions": "Visit 9 (only 8 patients had data)"}, "[4]": {"conditions": "any post-baseline visit, 3975 patients with data"}, "[5]": {"conditions": "any post-baseline visit, 3977 patients with data"}},
  "data": [
    {"smiles": "CC/C=C\\C/C=C\\C/C=C\\C/C=C\\C/C=C\\CCCC(=O)OCC", "note": "[AMR101, eicosapentaenoic acid ethyl ester]", "values": [
      {"measurement": "ALT, mean baseline value", "setting": "[1]", "value": 27.72, "unit": "U/L"},
      {"measurement": "AST, mean baseline value", "setting": "[1]", "value": 24.47, "unit": "U/L"},
      {"measurement": "Hemoglobin, mean baseline value", "setting": "[1]", "value": 141.16, "unit": "g/L"},
      {"measurement": "Platelet Count, mean baseline value", "setting": "[1]", "value": "2.4301e+11", "unit": "L⁻¹"},
      {"measurement": "ALT, mean change from baseline", "setting": "Last Visit, Safety population", "value": "−2.33", "unit": "U/L"},
      {"measurement": "AST, mean change from baseline", "setting": "Last Visit, Safety population", "value": "−1.25", "unit": "U/L"},
      {"measurement": "Hemoglobin, mean change from baseline", "setting": "Last Visit, Safety population", "value": -1.12, "unit": "g/L"},
      {"measurement": "Platelet Count, mean change from baseline", "setting": "Last Visit, Safety population", "value": "-5.52e+09", "unit": "L⁻¹"},
      {"measurement": "Increase of 3×ULN in ALT or AST and increase of 2×ULN in total bilirubin, patients", "setting": "Safety population", "value": "one patient"},
      {"measurement": "Increase of 3×ULN in ALT or AST, increase of 2×ULN in total bilirubin, and alkaline phosphatase ≤2×ULN, patients", "setting": "Safety population", "value": "one patient"},
      {"measurement": "Individual study drug-related hematology and clinical chemistry TEAEs, incidence", "setting": "Safety population", "value": "< 0.2", "unit": "%"},
      {"measurement": "Patients with basophils PCS high >1%", "setting": "Safety population", "value": 47.0, "unit": "%"},
      {"measurement": "Patients with treatment-emergent total bilirubin >ULN", "setting": "Safety population", "value": 7.5, "unit": "%"},
      {"measurement": "TEAE blood glucose increased, patients", "setting": "Safety population", "value": 2.6, "unit": "%"},
      {"measurement": "TEAE hyperglycemia, patients", "setting": "Safety population", "value": 1.7, "unit": "%"},
      {"measurement": "TEAE hypoglycemia, patients", "setting": "Safety population", "value": 1.5, "unit": "%"},
      {"measurement": "ALT, mean change from baseline", "setting": "Visit 3, Safety population", "value": 0.39, "unit": "U/L"},
      {"measurement": "AST, mean change from baseline", "setting": "Visit 3, Safety population", "value": 0.24, "unit": "U/L"},
      {"measurement": "Hemoglobin, mean change from baseline", "setting": "Visit 3, Safety population", "value": 0.17, "unit": "g/L"},
      {"measurement": "Platelet Count, mean change from baseline", "setting": "Visit 3, Safety population", "value": "-2.36e+09", "unit": "L⁻¹"},
      {"measurement": "ALT, mean change from baseline", "setting": "Visit 4, Safety population", "value": "−0.28", "unit": "U/L"},
      {"measurement": "AST, mean change from baseline", "setting": "Visit 4, Safety population", "value": 0.03, "unit": "U/L"},
      {"measurement": "Hemoglobin, mean change from baseline", "setting": "Visit 4, Safety population", "value": 0.85, "unit": "g/L"},
      {"measurement": "Platelet Count, mean change from baseline", "setting": "Visit 4, Safety population", "value": "-4.85e+09", "unit": "L⁻¹"},
      {"measurement": "ALT, mean change from baseline", "setting": "Visit 5, Safety population", "value": "−1.27", "unit": "U/L"},
      {"measurement": "AST, mean change from baseline", "setting": "Visit 5, Safety population", "value": "−0.83", "unit": "U/L"},
      {"measurement": "Hemoglobin, mean change from baseline", "setting": "Visit 5, Safety population", "value": 1.39, "unit": "g/L"},
      {"measurement": "Platelet Count, mean change from baseline", "setting": "Visit 5, Safety population", "value": "-1.05e+10", "unit": "L⁻¹"},
      {"measurement": "ALT, mean change from baseline", "setting": "Visit 6, Safety population", "value": "−1.66", "unit": "U/L"},
      {"measurement": "AST, mean change from baseline", "setting": "Visit 6, Safety population", "value": "−1.10", "unit": "U/L"},
      {"measurement": "Hemoglobin, mean change from baseline", "setting": "Visit 6, Safety population", "value": 0.92, "unit": "g/L"},
      {"measurement": "Platelet Count, mean change from baseline", "setting": "Visit 6, Safety population", "value": "-1.368e+10", "unit": "L⁻¹"},
      {"measurement": "ALT, mean change from baseline", "setting": "Visit 7, Safety population", "value": "−2.80", "unit": "U/L"},
      {"measurement": "AST, mean change from baseline", "setting": "Visit 7, Safety population", "value": "−1.56", "unit": "U/L"},
      {"measurement": "Hemoglobin, mean change from baseline", "setting": "Visit 7, Safety population", "value": 0.64, "unit": "g/L"},
      {"measurement": "Platelet Count, mean change from baseline", "setting": "Visit 7, Safety population", "value": "-1.73e+10", "unit": "L⁻¹"},
      {"measurement": "Platelet count, greatest mean decrease from baseline excluding Visit 9", "setting": "Visit 8", "value": "1.85e+10", "unit": "L⁻¹"},
      {"measurement": "ALT, mean change from baseline", "setting": "Visit 8, Safety population", "value": "−3.42", "unit": "U/L"},
      {"measurement": "AST, mean change from baseline", "setting": "Visit 8, Safety population", "value": "−1.66", "unit": "U/L"},
      {"measurement": "Hemoglobin, mean change from baseline", "setting": "Visit 8, Safety population", "value": -0.33, "unit": "g/L"},
      {"measurement": "Platelet Count, mean change from baseline", "setting": "Visit 8, Safety population", "value": "-1.854e+10", "unit": "L⁻¹"},
      {"measurement": "ALT, mean change from baseline", "setting": "[2]", "value": "−1.25", "unit": "U/L"},
      {"measurement": "AST, mean change from baseline", "setting": "[2]", "value": 0.25, "unit": "U/L"},
      {"measurement": "Hemoglobin, mean change from baseline", "setting": "[2]", "value": -4.13, "unit": "g/L"},
      {"measurement": "Platelet Count, mean change from baseline", "setting": "[2]", "value": "-3.288e+10", "unit": "L⁻¹"},
      {"measurement": "Hemoglobin, greatest mean change from baseline", "setting": "[3]", "value": -4.1, "unit": "g/L"},
      {"measurement": "Platelet count, greatest mean decrease from baseline", "setting": "[3]", "value": "3.29e+10", "unit": "L⁻¹"},
      {"measurement": "ALT or AST >3 × ULN and Total Bilirubin >2 × ULN, % patients", "setting": "[4]", "value": "(0.0) %"},
      {"measurement": "ALT or AST >3 × ULN and Total Bilirubin >2 × ULN, n patients", "setting": "[4]", "value": 1},
      {"measurement": "ALT or AST >3 × ULN, % patients", "setting": "[4]", "value": "(1.5) %"},
      {"measurement": "ALT or AST >3 × ULN, Total Bilirubin >2 × ULN, and ALP ≤2 × ULN, % patients", "setting": "[4]", "value": "(0.0) %"},
      {"measurement": "ALT or AST >3 × ULN, Total Bilirubin >2 × ULN, and ALP ≤2 × ULN, n patients", "setting": "[4]", "value": 1},
      {"measurement": "ALT or AST >3 × ULN, n patients", "setting": "[4]", "value": 61},
      {"measurement": "PCS High >3 × ULN (AST) and >2 × ULN (Total Bilirubin), % patients", "setting": "[4]", "value": "(0.0) %"},
      {"measurement": "PCS High >3 × ULN (AST) and >2 × ULN (Total Bilirubin), n patients", "setting": "[4]", "value": 1},
      {"measurement": "Treatment-emergent AST >3 × ULN, % patients", "setting": "[4]", "value": "(0.9) %"},
      {"measurement": "Treatment-emergent AST >3 × ULN, n patients", "setting": "[4]", "value": 36},
      {"measurement": "Treatment-emergent AST >ULN, % patients", "setting": "[4]", "value": "(23.4) %"},
      {"measurement": "Treatment-emergent AST >ULN, n patients", "setting": "[4]", "value": 932},
      {"measurement": "PCS High >3 × ULN (ALT) and >2 × ULN (Total Bilirubin), % patients", "setting": "[5]", "value": "(0.0) %"},
      {"measurement": "PCS High >3 × ULN (ALT) and >2 × ULN (Total Bilirubin), n patients", "setting": "[5]", "value": 1},
      {"measurement": "Treatment-emergent ALP >2 × ULN, % patients", "setting": "[5]", "value": "(0.5) %"},
      {"measurement": "Treatment-emergent ALP >2 × ULN, n patients", "setting": "[5]", "value": 18},
      {"measurement": "Treatment-emergent ALP >ULN, % patients", "setting": "[5]", "value": "(7.7) %"},
      {"measurement": "Treatment-emergent ALP >ULN, n patients", "setting": "[5]", "value": 308},
      {"measurement": "Treatment-emergent ALT >3 × ULN, % patients", "setting": "[5]", "value": "(1.1) %"},
      {"measurement": "Treatment-emergent ALT >3 × ULN, n patients", "setting": "[5]", "value": 44},
      {"measurement": "Treatment-emergent ALT >ULN, % patients", "setting": "[5]", "value": "(32.9) %"},
      {"measurement": "Treatment-emergent ALT >ULN, n patients", "setting": "[5]", "value": 1308},
      {"measurement": "Treatment-emergent Total Bilirubin >2 × ULN, % patients", "setting": "[5]", "value": "(0.5) %"},
      {"measurement": "Treatment-emergent Total Bilirubin >2 × ULN, n patients", "setting": "[5]", "value": 21},
      {"measurement": "Treatment-emergent Total Bilirubin >ULN, % patients", "setting": "[5]", "value": "(7.5) %"},
      {"measurement": "Treatment-emergent Total Bilirubin >ULN, n patients", "setting": "[5]", "value": 297},
      {"measurement": "Hemoglobin, greatest mean change from baseline excluding Visit 9", "setting": "final visit", "value": -1.1, "unit": "g/L"}
    ]}
  ]
}
